Values quoted from earlier work in patent USRE30496E, “Tripeptide derivatives with central nervous system activity and preparation thereof” (Ayerst, McKenna & Harrison, Ltd., priority 1979, dated 1981).

Columns and labels:
effects of oxotremorine = conditions: literature (Plotnikoff 1972)
mice = conditions: literature (Plotnikoff 1973)
monkeys = conditions: literature (Plotnikoff 1973)
[1] = system: behavioral effects of (3,4-dihydroxyphenyl)-L-alanine (L-DOPA); conditions: literature (Plotnikoff 1971; Friedman 1973)
[2] = in vivo

first step in the inactivation [2]: proteolytic cleavage of the Pro-Leu bond
Substance: H-L-prolyl-L-leucyl-glycinamide [H--Pro--Leu--Gly--NH2]
antagonism of the effects of oxotremorine (effects of oxotremorine): antagonizes the effects of oxotremorine
reversal of the sedative effects of deserpidine (mice): reverses the sedative effects of deserpidine
reversal of the sedative effects of deserpidine (monkeys): reverses the sedative effects of deserpidine
potentiation of the behavioral effects of L-DOPA [1]: potentiates the behavioral effects
